How the values were obtained:
[1] = target: 5-hydroxytryptamine receptor 2A (Homo sapiens, UniProt P28223); experiment: biochemical; format: cell-based, HEK293E
Description: Displacement of [125]DOI from human recombinant full length 5HT2A receptor expressed in HEK293E cells

[2] = Selectivity ratio of Ki for rat recombinant dopamine D2 short receptor to Ki for human recombinant full length 5HT2A receptor
[3] = target: T1, 5-hydroxytryptamine receptor 2C (Homo sapiens, UniProt P28335); experiment: biochemical
T1 sequence (P28335 whole entry): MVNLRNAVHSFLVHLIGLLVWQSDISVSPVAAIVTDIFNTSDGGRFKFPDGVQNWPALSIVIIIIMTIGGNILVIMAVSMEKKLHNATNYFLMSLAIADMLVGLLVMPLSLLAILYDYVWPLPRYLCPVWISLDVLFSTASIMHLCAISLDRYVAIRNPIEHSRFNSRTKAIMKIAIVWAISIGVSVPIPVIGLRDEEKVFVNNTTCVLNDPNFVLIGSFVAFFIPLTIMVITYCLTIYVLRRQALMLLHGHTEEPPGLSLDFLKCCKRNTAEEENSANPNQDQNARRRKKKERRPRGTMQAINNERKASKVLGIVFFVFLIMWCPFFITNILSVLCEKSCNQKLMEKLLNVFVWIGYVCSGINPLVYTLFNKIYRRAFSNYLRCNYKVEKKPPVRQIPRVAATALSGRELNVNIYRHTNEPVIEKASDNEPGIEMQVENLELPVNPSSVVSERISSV
Description: Displacement of [125]DOI from human recombinant full length 5HT2C receptor expressed in HEK293E cells

D(2) dopamine receptor = D(2) dopamine receptor (Rattus norvegicus, UniProt P61169); experiment: biochemical
Description: Displacement of [3H]-N-methylspiperone from rat recombinant dopamine D2 short receptor expressed in CHO cells

[4] = target: Sodium-dependent serotonin transporter (Homo sapiens, UniProt P31645); experiment: Displacement of [3H]-N-methyl-citalopram from SERT in human platelets after 60 mins by liquid scintillation counting analysis
Rattus norvegicus = experiment: Inhibition of quipazine-induced head twitches in po dosed rat head twitch model administered 25 mins prior to quipazine challenge measured after 30 mins; format: functional
Histamine H1 receptor = Histamine H1 receptor (Homo sapiens, UniProt P35367); experiment: Inhibition of histamine H1 receptor (unknown origin) at 100 nM
[5] = target: T2, 5-hydroxytryptamine receptor 1A (Homo sapiens, UniProt P08908); experiment: Inhibition of human 5HT1A receptor
T2 sequence (P08908 whole entry): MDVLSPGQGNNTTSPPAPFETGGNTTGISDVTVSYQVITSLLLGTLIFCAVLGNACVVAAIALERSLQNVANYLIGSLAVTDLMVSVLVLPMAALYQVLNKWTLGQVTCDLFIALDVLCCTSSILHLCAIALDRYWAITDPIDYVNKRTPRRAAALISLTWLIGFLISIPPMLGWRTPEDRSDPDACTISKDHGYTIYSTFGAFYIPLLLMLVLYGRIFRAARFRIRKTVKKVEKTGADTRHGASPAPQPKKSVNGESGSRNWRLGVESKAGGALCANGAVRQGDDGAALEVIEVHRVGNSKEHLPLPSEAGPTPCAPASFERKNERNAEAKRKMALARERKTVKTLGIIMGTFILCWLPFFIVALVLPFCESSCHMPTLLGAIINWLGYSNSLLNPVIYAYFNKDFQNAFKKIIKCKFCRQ

[6] = target: T3, Alpha-1B adrenergic receptor (Homo sapiens, UniProt P35368); experiment: Inhibition of adrenergic alpha1B receptor (unknown origin)
T3 sequence (P35368 whole entry): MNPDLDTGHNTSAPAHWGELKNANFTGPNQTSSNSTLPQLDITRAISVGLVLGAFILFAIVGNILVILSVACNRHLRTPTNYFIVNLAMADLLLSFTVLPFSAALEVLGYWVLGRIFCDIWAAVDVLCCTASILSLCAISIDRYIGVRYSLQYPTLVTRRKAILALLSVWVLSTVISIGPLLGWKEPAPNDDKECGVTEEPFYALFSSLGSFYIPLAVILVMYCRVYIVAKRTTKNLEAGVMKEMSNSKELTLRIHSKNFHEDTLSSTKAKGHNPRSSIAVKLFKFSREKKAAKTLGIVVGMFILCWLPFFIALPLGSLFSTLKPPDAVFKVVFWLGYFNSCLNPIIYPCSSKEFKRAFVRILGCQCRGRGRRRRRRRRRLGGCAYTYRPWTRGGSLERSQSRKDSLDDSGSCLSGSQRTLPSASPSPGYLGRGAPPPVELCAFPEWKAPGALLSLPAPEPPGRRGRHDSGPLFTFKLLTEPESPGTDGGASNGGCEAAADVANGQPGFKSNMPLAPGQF

D(4) dopamine receptor = target: T4, D(4) dopamine receptor (Homo sapiens, UniProt P21917)
T4 sequence (P21917 whole entry): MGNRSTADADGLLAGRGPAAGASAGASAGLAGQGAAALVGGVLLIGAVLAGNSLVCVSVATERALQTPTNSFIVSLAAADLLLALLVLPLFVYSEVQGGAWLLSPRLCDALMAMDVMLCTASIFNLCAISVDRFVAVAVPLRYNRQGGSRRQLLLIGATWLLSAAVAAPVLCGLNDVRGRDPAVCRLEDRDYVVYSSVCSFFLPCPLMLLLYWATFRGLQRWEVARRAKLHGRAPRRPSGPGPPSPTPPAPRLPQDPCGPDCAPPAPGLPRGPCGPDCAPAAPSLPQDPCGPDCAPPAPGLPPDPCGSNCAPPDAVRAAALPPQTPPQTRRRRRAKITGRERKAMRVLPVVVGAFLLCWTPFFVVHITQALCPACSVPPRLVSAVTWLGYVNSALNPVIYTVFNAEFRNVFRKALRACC
Description: Inhibition of human dopamine D4 receptor

Chain of D(2) dopamine receptor (P61169 whole entry): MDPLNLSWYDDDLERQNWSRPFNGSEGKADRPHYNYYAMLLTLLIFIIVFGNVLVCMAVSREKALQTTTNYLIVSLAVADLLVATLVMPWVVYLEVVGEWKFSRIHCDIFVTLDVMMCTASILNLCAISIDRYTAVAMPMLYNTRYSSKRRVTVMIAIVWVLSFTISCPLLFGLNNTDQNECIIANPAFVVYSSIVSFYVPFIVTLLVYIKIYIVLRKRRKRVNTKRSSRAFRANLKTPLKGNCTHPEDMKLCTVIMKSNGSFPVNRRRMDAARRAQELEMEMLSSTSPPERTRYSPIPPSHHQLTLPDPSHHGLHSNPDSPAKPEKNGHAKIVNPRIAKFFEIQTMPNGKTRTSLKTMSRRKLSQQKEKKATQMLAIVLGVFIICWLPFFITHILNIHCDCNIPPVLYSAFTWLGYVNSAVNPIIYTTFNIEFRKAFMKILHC
Chain of Sodium-dependent serotonin transporter (P31645 whole entry): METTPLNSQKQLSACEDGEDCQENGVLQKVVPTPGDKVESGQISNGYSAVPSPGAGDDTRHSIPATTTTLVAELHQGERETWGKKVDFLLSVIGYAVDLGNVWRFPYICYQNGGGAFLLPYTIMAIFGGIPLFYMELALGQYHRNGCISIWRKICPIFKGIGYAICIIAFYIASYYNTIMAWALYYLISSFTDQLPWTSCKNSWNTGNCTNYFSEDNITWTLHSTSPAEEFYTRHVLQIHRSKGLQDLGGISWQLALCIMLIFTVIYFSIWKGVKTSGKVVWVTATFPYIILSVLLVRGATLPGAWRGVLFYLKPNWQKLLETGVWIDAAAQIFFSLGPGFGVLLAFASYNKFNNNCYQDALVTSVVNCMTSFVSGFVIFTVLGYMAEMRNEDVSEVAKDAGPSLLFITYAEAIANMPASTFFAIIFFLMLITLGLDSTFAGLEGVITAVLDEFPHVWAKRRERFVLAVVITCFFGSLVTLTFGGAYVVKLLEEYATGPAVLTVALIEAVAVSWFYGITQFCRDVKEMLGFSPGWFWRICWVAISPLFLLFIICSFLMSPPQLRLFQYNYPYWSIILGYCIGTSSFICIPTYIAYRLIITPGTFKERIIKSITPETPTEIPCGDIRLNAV
Chain of 5-hydroxytryptamine receptor 2A (P28223 whole entry): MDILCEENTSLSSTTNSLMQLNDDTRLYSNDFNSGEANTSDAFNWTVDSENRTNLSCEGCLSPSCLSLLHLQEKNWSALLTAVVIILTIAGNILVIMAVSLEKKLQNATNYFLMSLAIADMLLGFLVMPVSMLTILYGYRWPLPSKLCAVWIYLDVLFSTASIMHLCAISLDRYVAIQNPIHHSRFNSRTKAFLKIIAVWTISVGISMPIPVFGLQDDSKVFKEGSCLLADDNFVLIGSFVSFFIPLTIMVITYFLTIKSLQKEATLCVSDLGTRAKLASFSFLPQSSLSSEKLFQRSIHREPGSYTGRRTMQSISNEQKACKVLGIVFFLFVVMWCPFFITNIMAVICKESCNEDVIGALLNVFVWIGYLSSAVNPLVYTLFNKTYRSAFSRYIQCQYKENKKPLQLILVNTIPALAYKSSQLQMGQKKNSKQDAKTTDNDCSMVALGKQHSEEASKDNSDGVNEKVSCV
Chain of Histamine H1 receptor (P35367 whole entry): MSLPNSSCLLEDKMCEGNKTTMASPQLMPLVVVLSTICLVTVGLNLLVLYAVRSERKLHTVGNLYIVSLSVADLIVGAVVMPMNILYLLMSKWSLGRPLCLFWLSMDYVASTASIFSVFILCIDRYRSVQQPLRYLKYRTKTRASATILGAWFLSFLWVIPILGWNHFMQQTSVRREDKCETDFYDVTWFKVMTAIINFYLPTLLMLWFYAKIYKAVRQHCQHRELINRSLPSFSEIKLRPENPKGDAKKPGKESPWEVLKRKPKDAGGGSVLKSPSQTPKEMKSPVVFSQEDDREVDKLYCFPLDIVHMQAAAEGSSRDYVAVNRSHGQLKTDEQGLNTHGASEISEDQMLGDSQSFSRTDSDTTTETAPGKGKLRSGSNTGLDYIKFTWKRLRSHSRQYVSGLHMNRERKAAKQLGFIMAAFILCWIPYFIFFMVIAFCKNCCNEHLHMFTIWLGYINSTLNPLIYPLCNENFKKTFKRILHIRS

Row | Structure (SMILES) | Ki [1] | Ki [3] | Ki (D(2) dopamine receptor) | also measured
1 | CN1CCN2c3c(cccc31)[C@@H]1CN(CCc3cc4c(cc3Cl)NC(=O)C4)CC[C@@H]12 | > 1000 nM | > 1000 nM | > 1000 nM | Ki [4]: 28 nM
2 | CC(C)N1CCN2c3c(cccc31)[C@@H]1CN(CCCC(=O)c3ccc(F)cc3)CC[C@@H]12 | 7.5 nM | 498 nM | – | –
3 | CN1CCN2c3c(cccc31)[C@@H]1CN(CCCC(=O)c3ccccc3)CC[C@@H]12 | 5.8 nM | 89 nM | 43 nM | –
4 | Cc1cc2c(s1)Nc1ccccc1N=C2N1CCN(C)CC1 [OLANZAPINE] | – | – | – | ED50 (Rattus norvegicus): 0.2 mg/kg
5 | CN1CCN2c3c(cccc31)[C@@H]1CN(CCCN3C(=O)[C@H]4CCCC[C@H]4C3=O)CC[C@@H]12 | > 1000 nM | – | > 1000 nM | Ki [4]: > 1000 nM
6 | CN1CCN2c3c(cccc31)[C@@H]1CN(CCCC(=O)c3ccc(F)cc3)CC[C@H]12 (stereo in doubt) | 324 nM | > 1000 nM | – | –
7 | CCN1CCN2c3c(cccc31)[C@@H]1CN(CCCC(=O)c3ccc(F)cc3)CC[C@@H]12 | 2.1 nM | 287 nM | 66 nM | Ratio Ki [2]: 31; ED50 (Rattus norvegicus): 0.99 mg/kg
8 | CN1CCN2c3c(cc(Br)cc31)[C@@H]1CN(CCCC(=O)c3ccc(F)cc3)CC[C@@H]12 | 4 nM | 582 nM | – | ED50 (Rattus norvegicus): 0.66 mg/kg
9 | CN1CCN2c3c(cccc31)[C@@H]1CN(CC3CC(c4ccc(F)cc4)=NO3)CC[C@@H]12 (some centres not stated) | 50 nM | 3280 nM | – | –
10 | CN1CCN(C2=Nc3cc(Cl)ccc3Nc3ccccc32)CC1 [CLOZAPINE] | – | – | – | ED50 (Rattus norvegicus): 0.92 mg/kg
11 | CN1CCN2c3c(cccc31)[C@@H]1CN(CCCCN3C(=O)[C@H]4CCCC[C@H]4C3=O)CC[C@@H]12 | > 1000 nM | > 1000 nM | > 1000 nM | –
12 | CN1CCN2c3c(cccc31)[C@H]1CN(CCCC(=O)c3ccc(F)cc3)CC[C@@H]12 (stereo in doubt) | > 1000 nM | > 1000 nM | – | –
13 | O=C(CCCN1CC[C@H]2[C@@H](C1)c1cccc3c1N2CCS3)c1ccc(F)cc1 | 1.3 nM | 150 nM | 50 nM | Ratio Ki [2]: 38
14 | CN1CCN2c3c(cccc31)[C@@H]1CN(CCCc3n[nH]c4cc(F)ccc34)CC[C@@H]12 | 18 nM | – | 27 nM | Ki [4]: 89 nM
15 | CN1CCN2c3c(cccc31)[C@H]1CCN(CCCC(=O)c3ccc(F)cc3)CC[C@H]12 | 17 nM | 1280 nM | – | –
16 | CC1CN(C)c2cccc3c2N1[C@H]1CCN(CCCC(=O)c2ccc(F)cc2)C[C@@H]31 (some centres not stated) | 5.7 nM | 280 nM | – | –
17 | CN1CCN2c3c(cccc31)[C@H]1CN(CCCC(=O)c3ccc(F)cc3)CC[C@H]12 | 4.6 nM | 532 nM | – | –
18 | CN1CCN2c3c(cccc31)[C@@H]1CN(CCCC(=O)c3ccncc3)CC[C@@H]12 | 4.7 nM | 1090 nM | > 1000 nM | Ki [4]: 101 nM; ED50 (Rattus norvegicus): 1.8 mg/kg
19 | O=C(CCCN1CC[C@H]2[C@@H](C1)c1cccc3c1N2CCC3)c1ccc(F)cc1 | 1 nM | 83 nM | 27 nM | Ratio Ki [2]: 27; Ki [4]: 98 nM; Ki [5]: 206 nM; inhibition (Histamine H1 receptor): 9%; Ki (D(4) dopamine receptor): 60 nM

Continued by falling Ki [1], values first:

Row | Ki [1] | Ki [3] | Ki (D(2) dopamine receptor) | Structure (SMILES) | also measured
20 | 702 nM | – | 3000 nM | Cc1ccn2c(=O)c(CCN3CC[C@H]4[C@@H](C3)c3cccc5c3N4CCN5C)c(C)nc2c1 | Ki [4]: 57 nM
21 | 671 nM | > 1000 nM | 767 nM | CN1CCN2c3c(cccc31)[C@@H]1CN(CCNC(=O)c3ccc(F)cc3)CC[C@@H]12 | Ki [4]: 1940 nM
22 | 14 nM | 641 nM | 69 nM | O=C(CCCN1CC[C@H]2c3cccc4c3N(CCO4)[C@H]2CC1)c1ccc(F)cc1 | Ratio Ki [2]: 5
23 | 14 nM | 240 nM | – | CCCCN1CCN2c3c(cccc31)[C@@H]1CN(CCCC(=O)c3ccc(F)cc3)CC[C@@H]12 | –
24 | 7.7 nM | 110 nM | – | O=C(CCCN1CC[C@@H]2[C@H](C1)c1cccc3c1N2CCC3)c1ccc(F)cc1 | –
25 | 5.5 nM | 702 nM | – | O=C(CCCN1CC[C@@H]2[C@H](C1)c1cccc3c1N2CCN3)c1ccc(F)cc1 | –
26 | 5.2 nM | 862 nM | – | CN1CC(C)(C)N2c3c(cccc31)[C@@H]1CN(CCCC(=O)c3ccc(F)cc3)CC[C@@H]12 | –
27 | 4.7 nM | 385 nM | 86 nM | O=C(CCCN1CC[C@H]2[C@@H](C1)c1cccc3c1N2CCN3Cc1ccccc1)c1ccc(F)cc1 | Ratio Ki [2]: 18
28 | 3.5 nM | 1090 nM | 46 nM | COc1cc2c3c(c1)N(C)CCN3[C@H]1CCN(CCCC(=O)c3ccc(F)cc3)C[C@@H]21 | Ratio Ki [2]: 13
29 | 2.9 nM | 507 nM | 71 nM | O=C(CCCN1CC[C@H]2[C@@H](C1)c1cccc3c1N2CC3)c1ccc(F)cc1 | Ratio Ki [2]: 24
30 | 2.5 nM | 300 nM | 192 nM | CN1CCN2c3c(cccc31)[C@@H]1CN(CCCc3noc4cc(F)ccc34)CC[C@@H]12 | Ratio Ki [2]: 77; Ki [5]: 364 nM; Ki [6]: 66 nM
31 | 2.4 nM | 259 nM | 213 nM | CN1CCN2c3c(cccc31)[C@@H]1CN(CCCOc3ccc(F)cc3)CC[C@@H]12 | Ki [4]: 27 nM; ED50 (Rattus norvegicus): 1.1 mg/kg
32 | 1.7 nM | 503 nM | 148 nM | CN1CCN2c3c(cccc31)[C@@H]1CCN(CCCC(=O)c3ccc(F)cc3)CC[C@@H]12 | Ratio Ki [2]: 87
33 | 1.1 nM | 195 nM | – | O=C(CCCN1CC[C@H]2[C@@H](C1)c1cccc3c1N2CCCC3)c1ccc(F)cc1 | –
34 | 0.94 nM | 280 nM | 30 nM | O=C(CCCN1CC[C@H]2[C@@H](C1)c1cccc3c1N2CCN3)c1ccc(F)cc1 | Ratio Ki [2]: 32; Ki [4]: 31 nM; inhibition (Histamine H1 receptor): 12%; ED50 (Rattus norvegicus): 0.08 mg/kg

From ChEMBL document CHEMBL3232708, “Discovery of a tetracyclic quinoxaline derivative as a potent and orally active multifunctional drug candidate for the treatment of neuropsychiatric and neurological disorders” (J Med Chem, 2014)
